# Measured values taken from patent publication US10517889B2, “Modulators of SMAD7 expression” (Ionis Pharmaceuticals, Inc., priority 2017, dated 2019).
# Strand notation (5' to 3'): a small letter for the sugar, then the base; units joined by * are phosphorothioate-linked, units joined directly phosphodiester-linked; [ ] holds rarer units or linkages, { } end groups; capitals alone tell only the bases. k = constrained ethyl (cEt); [5mC] = 5-methylcytosine; d = 2'-deoxy (DNA)
# System: human SMAD7 mRNA
# Experiment: Antisense inhibition of human SMAD7 mRNA expression in Hep3B cells by 3-10-3 cEt gapmers, 10,000 nM, electroporation (Example 2)
# Assay type: cell-based
# Settings: Hep3B cells, electroporation with 10,000 nM antisense oligonucleotide, approximately 24 hours, RTS5062, percent inhibition of SMAD7 mRNA relative to untreated control cells
# In short: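 Percent inhibition of SMAD7 mRNA, relative to untreated cells, after ~24 h exposure of electroporated Hep3B cells to 10,000 nM cEt gapmer; levels by qRT-PCR, corrected for total RNA.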
row,Substance,% Inhibition
1,799768 (k[5mC]*kA*k[5mC]*d[5mC]*dA*dA*d[5mC]*d[5mC]*dT*d[5mC]*dT*dG*dT*kG*kG*kG; antisense) [compound 799768],0%
2,799769 (k[5mC]*k[5mC]*kA*d[5mC]*d[5mC]*dA*dA*d[5mC]*d[5mC]*dT*d[5mC]*dT*dG*kT*kG*kG; antisense) [compound 799769],0%
3,799770 (kG*kT*kT*dT*d[5mC]*d[5mC]*dA*dA*dG*dG*d[5mC]*d[5mC]*dG*kG*k[5mC]*kG; antisense) [compound 799770],50%
4,799782 (k[5mC]*kA*kT*dA*dA*dT*dA*dG*dG*dT*dG*dT*d[5mC]*kA*kA*kT; antisense) [compound 799782],4%
5,799783 (kG*k[5mC]*kA*d[5mC]*dA*dT*dA*dA*dT*dA*dG*dG*dT*kG*kT*k[5mC]; antisense) [compound 799783],24%
6,799784 (k[5mC]*kA*kG*dG*dA*dA*d[5mC]*dT*dG*dG*dT*d[5mC]*d[5mC]*kT*k[5mC]*kT; antisense) [compound 799784],19%
7,799785 (k[5mC]*kT*k[5mC]*d[5mC]*dA*dG*dG*dT*dA*dG*dA*dG*dG*k[5mC]*kA*kA; antisense) [compound 799785],0%
8,799786 (kA*k[5mC]*kA*dG*dA*dA*dG*d[5mC]*dT*dG*d[5mC]*d[5mC]*d[5mC]*k[5mC]*kT*kG; antisense) [compound 799786],0%
9,799788 (k[5mC]*kA*k[5mC]*dA*dA*d[5mC]*d[5mC]*dA*dA*dA*dG*d[5mC]*dA*kG*kA*kA; antisense) [compound 799788],59%
10,799789 (kA*k[5mC]*kA*d[5mC]*dA*dA*d[5mC]*d[5mC]*dA*dA*dA*dG*d[5mC]*kA*kG*kA; antisense) [compound 799789],44%
11,799790 (kG*kA*kG*dA*d[5mC]*d[5mC]*dT*dA*d[5mC]*d[5mC]*dT*d[5mC]*dT*kG*kT*kT; antisense) [compound 799790],33%
12,799801 (kA*kA*kT*d[5mC]*dA*dA*dG*dT*d[5mC]*d[5mC]*dT*d[5mC]*dT*kG*kG*kA; antisense) [compound 799801],18%
13,799802 (k[5mC]*k[5mC]*kA*dG*dA*d[5mC]*dA*dG*dG*d[5mC]*d[5mC]*dA*dG*kG*kG*k[5mC]; antisense) [compound 799802],20%
14,799803 (kA*kG*kA*dA*dG*dG*dA*dT*dG*dA*dA*dT*dG*kT*kG*kA; antisense) [compound 799803],10%
15,799804 (kA*k[5mC]*kA*dG*dA*d[5mC]*dA*dG*dA*dG*dA*dA*dG*kG*kA*kT; antisense) [compound 799804],38%
16,799805 (k[5mC]*kG*kA*dG*dA*dA*dG*dA*dG*dT*dA*dA*dT*kT*k[5mC]*kA; antisense) [compound 799805],1%
17,799806 (antisense kG*kA*kG*dG*dA*dG*d[5mC]*dG*dA*dG*dA*dA*dG*kA*kG*kT) [compound 799806],6%
18,799807 (antisense kA*kA*kA*dT*dT*dG*dG*dA*dA*dT*dT*dG*dA*kG*kA*k[5mC]) [compound 799807],37%
19,799809 (antisense k[5mC]*kA*kA*dT*dA*d[5mC]*dT*dG*dA*dA*dA*dT*dG*kA*kG*k[5mC]) [compound 799809],43%
20,799810 (antisense k[5mC]*kT*kT*dA*dT*dT*dG*dT*dT*dT*dT*dT*dG*kT*kT*k[5mC]) [compound 799810],14%

# Same assay, conditions: Hep3B cells, electroporation, 10,000 nM antisense oligonucleotide, approximately 24 hours, RTS5062, relative to untreated control cells
row,Substance,% inhibition of SMAD7 mRNA expression
1,799771 (kG*k[5mC]*kA*dT*dA*dT*dG*d[5mC]*d[5mC]*dA*d[5mC]*dT*dG*kA*kG*kA; antisense) [compound 799771],0%
2,799772 (k[5mC]*kG*k[5mC]*d[5mC]*dG*d[5mC]*dG*dG*d[5mC]*dA*dT*dA*dT*kG*k[5mC]*k[5mC]; antisense) [compound 799772],30%
3,799773 (k[5mC]*kG*k[5mC]*dT*dA*dG*dG*dT*d[5mC]*dA*d[5mC]*dA*d[5mC]*kT*k[5mC]*kA; antisense) [compound 799773],43%
4,799774 (kG*k[5mC]*k[5mC]*d[5mC]*dT*dG*dT*dT*d[5mC]*dT*dG*d[5mC]*dG*k[5mC]*kT*kA; antisense) [compound 799774],0%
5,799775 (kA*k[5mC]*kA*d[5mC]*dA*dA*dG*dA*dG*dG*dG*dA*dA*kG*k[5mC]*k[5mC]; antisense) [compound 799775],22%
6,799776 (k[5mC]*kA*kG*dA*dA*dG*dG*dA*d[5mC]*d[5mC]*dA*dA*dG*kT*k[5mC]*k[5mC]; antisense) [compound 799776],11%
7,799777 (kA*kG*kT*d[5mC]*dA*dG*d[5mC]*d[5mC]*dA*dG*dA*dA*dG*kG*kA*k[5mC]; antisense) [compound 799777],34%
8,799778 (kG*k[5mC]*kA*d[5mC]*dA*d[5mC]*d[5mC]*dT*dT*d[5mC]*d[5mC]*dA*dA*kG*k[5mC]*kA; antisense) [compound 799778],10%
9,799779 (kT*kA*kA*dA*d[5mC]*dA*dA*dA*d[5mC]*d[5mC]*dA*d[5mC]*dA*kG*kG*kG; antisense) [compound 799779],19%
10,799780 (k[5mC]*k[5mC]*kA*dT*dA*dA*dA*d[5mC]*dA*dA*dA*d[5mC]*d[5mC]*kA*k[5mC]*kA; antisense) [compound 799780],28%
11,799792 (kA*k[5mC]*k[5mC]*dA*dA*dA*dA*d[5mC]*d[5mC]*d[5mC]*dG*dG*dG*kA*kG*kA; antisense) [compound 799792],31%
12,799793 (kG*kT*kT*d[5mC]*dT*dT*d[5mC]*d[5mC]*dT*dG*d[5mC]*dT*dG*kT*k[5mC]*kA; antisense) [compound 799793],30%
13,799794 (kA*kA*k[5mC]*d[5mC]*dA*d[5mC]*dA*dG*d[5mC]*dT*d[5mC]*d[5mC]*dT*kG*kT*kT; antisense) [compound 799794],0%
14,799795 (k[5mC]*k[5mC]*kA*dG*dA*dT*dG*dT*dT*dT*d[5mC]*d[5mC]*d[5mC]*k[5mC]*kA*k[5mC]; antisense) [compound 799795],66%
15,799796 (k[5mC]*kA*kT*dT*dA*dG*dA*dT*dA*d[5mC]*dT*dG*dT*k[5mC]*kT*kT; antisense) [compound 799796],43%
16,799797 (kG*kA*k[5mC]*dA*dT*dT*dA*dG*dA*dT*dA*d[5mC]*dT*kG*kT*k[5mC]; antisense) [compound 799797],27%
17,799798 (kT*k[5mC]*k[5mC]*d[5mC]*dA*d[5mC]*dT*dT*d[5mC]*dT*d[5mC]*d[5mC]*dT*k[5mC]*kT*kG; antisense) [compound 799798],50%
18,799799 (kA*kA*kA*dA*d[5mC]*dA*dT*d[5mC]*d[5mC]*d[5mC]*dA*d[5mC]*dT*kT*k[5mC]*kT; antisense) [compound 799799],28%
19,799800 (kT*kT*kA*d[5mC]*dA*dA*dA*dG*dG*dG*dA*dA*dA*kG*kT*k[5mC]; antisense) [compound 799800],28%
20,799811 (antisense k[5mC]*kT*kG*d[5mC]*d[5mC]*dA*dA*d[5mC]*dG*dG*d[5mC]*dA*d[5mC]*kA*kG*kT) [compound 799811],0%
21,799812 (antisense k[5mC]*kA*kG*dA*d[5mC]*dA*dG*d[5mC]*dT*dA*dA*dT*d[5mC]*kT*kG*k[5mC]) [compound 799812],39%
22,799813 (antisense kA*kT*kG*d[5mC]*dA*dG*dA*d[5mC]*dA*dG*d[5mC]*dT*dA*kA*kT*k[5mC]) [compound 799813],16%
23,799814 (antisense k[5mC]*k[5mC]*kT*d[5mC]*dA*d[5mC]*dT*dT*dA*dG*d[5mC]*d[5mC]*dT*kG*k[5mC]*kA) [compound 799814],0%
24,799815 (antisense k[5mC]*kT*k[5mC]*dT*dT*dG*dA*dT*dG*dA*dT*d[5mC]*d[5mC]*kT*k[5mC]*kA) [compound 799815],68%
25,799816 (antisense kT*kG*kA*d[5mC]*dA*dA*dG*dG*dT*d[5mC]*d[5mC]*d[5mC]*d[5mC]*kA*kG*kG) [compound 799816],19%
26,799817 (antisense kT*kA*k[5mC]*dT*dG*dA*dT*dT*d[5mC]*dA*dT*dG*dA*kG*kG*kG) [compound 799817],45%
27,799818 (antisense k[5mC]*kA*k[5mC]*dT*dG*dA*dT*dA*dA*d[5mC]*dT*dA*dA*k[5mC]*kT*kT) [compound 799818],24%
28,799819 (antisense k[5mC]*k[5mC]*k[5mC]*d[5mC]*dA*d[5mC]*dT*dG*dA*dG*d[5mC]*dA*dG*kG*kA*kG) [compound 799819],26%
